SMILES strings stand for the structures. pIC50: −log10 of the molar value. Where two headings read alike, the source gives them in different places. Some results are limits rather than exact numbers.

In one assay the target is T1, CDK4 (Homo sapiens, UniProt P11802).
T1 construct: purchased Invitrogen PR8064A
The assay is described as follows: In vitro kinase inhibition IC50, luminescence (ADP Glo), retinoblastoma substrate. Format: biochemical. Particulars: read-out: CDK4/D1 IC50. The gist of the method: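 CDK4 enzyme (5 nM, Invitrogen) was combined with test compound and a mix of retinoblastoma substrate (1 μM) plus ATP (25 μM) in kinase buffer, 30 μL/well in 96-well half area white plates. After 2H at room temperature, ADP Glo reagent stopped the reaction for 45 min, then detection reagent was added and luminescence was read.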
On the technique in general: ADP-Glo turns the ADP formed in a reaction into a luminescent signal.

For a further assay, the target named is T2, CDK6 (Homo sapiens, UniProt Q00534).
T2 construct: purchased Invitrogen PR8422B
T2 sequence (Q00534 whole entry): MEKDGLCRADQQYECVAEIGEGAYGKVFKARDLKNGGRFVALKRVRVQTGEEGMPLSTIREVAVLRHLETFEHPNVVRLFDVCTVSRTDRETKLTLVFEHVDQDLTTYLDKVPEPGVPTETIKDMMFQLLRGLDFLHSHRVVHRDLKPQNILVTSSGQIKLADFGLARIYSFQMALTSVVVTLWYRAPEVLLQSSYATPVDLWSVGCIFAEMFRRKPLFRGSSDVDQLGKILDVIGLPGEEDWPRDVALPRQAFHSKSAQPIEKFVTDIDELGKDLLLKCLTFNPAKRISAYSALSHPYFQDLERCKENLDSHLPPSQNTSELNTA
T2 sequence (P24385 whole entry partner): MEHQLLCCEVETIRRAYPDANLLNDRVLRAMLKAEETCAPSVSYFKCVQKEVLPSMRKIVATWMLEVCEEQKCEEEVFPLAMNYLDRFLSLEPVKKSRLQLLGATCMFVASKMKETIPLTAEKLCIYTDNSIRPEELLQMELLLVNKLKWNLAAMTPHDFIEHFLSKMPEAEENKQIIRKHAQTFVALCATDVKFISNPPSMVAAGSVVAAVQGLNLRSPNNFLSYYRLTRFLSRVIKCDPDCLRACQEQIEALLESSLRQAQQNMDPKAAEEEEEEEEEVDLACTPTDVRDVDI
The assay is described as above. Format: biochemical. Particulars: read-out: CDK6/D1 IC50. Put shortly: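 Recombinant CDK6 (5 nM) with retinoblastoma substrate (1 μM) and 25 μM ATP, compound at final 0.1–200 nM, incubated 2 h at room temperature. ADP formed detected by ADP-Glo luminescence. IC50 from four-parameter logistic fit of percent inhibition.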

For a further assay, the target named is T3, CDK1 (cyclin B) (Homo sapiens, UniProt P06493).
T3 construct: purchased Invitrogen Life Technologies (assay service)
T3 sequence (P06493 whole entry): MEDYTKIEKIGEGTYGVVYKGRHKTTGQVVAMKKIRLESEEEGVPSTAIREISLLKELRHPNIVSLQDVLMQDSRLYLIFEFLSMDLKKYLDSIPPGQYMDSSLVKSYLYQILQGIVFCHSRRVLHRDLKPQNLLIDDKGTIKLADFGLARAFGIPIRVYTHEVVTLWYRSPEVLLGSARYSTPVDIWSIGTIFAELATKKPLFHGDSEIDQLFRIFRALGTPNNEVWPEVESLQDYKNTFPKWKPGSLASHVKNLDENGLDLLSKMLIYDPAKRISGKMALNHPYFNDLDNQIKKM
T3 sequence (P14635 whole entry partner): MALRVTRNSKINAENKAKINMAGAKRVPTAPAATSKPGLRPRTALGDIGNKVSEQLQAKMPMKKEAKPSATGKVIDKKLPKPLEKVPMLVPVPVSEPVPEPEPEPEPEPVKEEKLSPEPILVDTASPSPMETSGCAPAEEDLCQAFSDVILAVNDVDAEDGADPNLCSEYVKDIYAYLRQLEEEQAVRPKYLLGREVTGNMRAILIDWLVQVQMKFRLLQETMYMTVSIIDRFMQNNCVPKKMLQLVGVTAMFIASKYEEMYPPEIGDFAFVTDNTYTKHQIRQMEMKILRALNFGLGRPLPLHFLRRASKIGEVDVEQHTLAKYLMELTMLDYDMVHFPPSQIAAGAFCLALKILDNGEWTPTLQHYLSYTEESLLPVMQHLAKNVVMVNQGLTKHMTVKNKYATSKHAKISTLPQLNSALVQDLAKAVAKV
The assay is described as follows: Z'-LYTE kinase assay. Format: biochemical. The procedure:
The plates were shaken for 30 seconds, and incubated for 60 minutes at room temperature. […] The plates were read on fluorescence plate reader with Dual emission at 445 nm and 520 nm.
The following equations were used for Z′-LYTE™ Screening Assay Data Analysis.

The next assay addresses T4, CDK2 (cyclin A) (Homo sapiens, UniProt P24941).
T4 construct: purchased Invitrogen Life Technologies (assay service)
The assay is described as follows: Z'-LYTE kinase assay. Format: biochemical. The procedure:
IC50 values of compounds against CDK2 (cyclin A) were determined by Z′-LYTE™ These screening assays were performed at Invitrogen Life Technologies (Grand Island, N.Y.) on a low volume NBS, black 384-well plate (#4514, Corning). 0.1 μL of 100×test compound in 100% DMSO (at specific solutions) was mixed with 2.4 μL of Kinase Buffer (50 mM HEPES pH 7.5, 0.01% BRIJ-35, 10 mM MgCl2, 1 mM EGTA), 5 μL of 2× Kinase (1.22-10.3 ng CDK2/cyclin A)/Peptide (2 μM Ser/Thr 12), and 2.5 μL of 4×ATP solution (31 μM). The plates were shaken for 30 seconds, and incubated for 60 minutes at room temperature. Development Reagent Solution (5 μL of 1:1024 dilution) was added to the plates followed with another 30-second plate shake and the plates were further incubated at room temperature for one hour. The plates were read on fluorescence plate reader with Dual emission at 445 nm and 520 nm.
The following equations were used for Z′-LYTE™ Screening Assay Data Analysis. Percent inhibition (100-% activity) was fitted to the “four-parameter logistic model” in XLfit for determination of IC50 values.

Assay [1] deals with DU4475 breast carcinoma cells. The assay is described as follows: Cancer cell proliferation assay, single agent (cell viability). The following applies: Homo sapiens, DU-4475; Table 4; Rb negative; treatment 144 Hr with medium change at 72 Hr; Cell Titer-Glo or resazurin. Format: cell-based. Put shortly:
(§1)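 Cells seeded day 1, then exposed on day 2 to 7–9 compound concentrations (e.g. 1.1 nM–10 μM); BT-549 for 24 h, MCF-7 and DU4475 for 144 h with medium change at 72 h. Viability by CellTiter-Glo or resazurin; IC50 from variable-slope sigmoidal fit.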

Assay [2] deals with MCF-7 breast adenocarcinoma cells. Described as above. Format: cell-based. Particulars: Homo sapiens, MCF7, Table 4; Rb positive; treatment 144 Hr with medium change at 72 Hr; Cell Titer-Glo or resazurin. The gist of the method:
as §1
In general terms: Cellular ATP, detected with luciferase, serves as a proxy for viable cell number.

For another assay, the target named is T5, PI3Kδ kinase (Homo sapiens, UniProt O00329).
T5 construct: purchased Reaction Biology Corporation (assay service)
T5 sequence (O00329 whole entry): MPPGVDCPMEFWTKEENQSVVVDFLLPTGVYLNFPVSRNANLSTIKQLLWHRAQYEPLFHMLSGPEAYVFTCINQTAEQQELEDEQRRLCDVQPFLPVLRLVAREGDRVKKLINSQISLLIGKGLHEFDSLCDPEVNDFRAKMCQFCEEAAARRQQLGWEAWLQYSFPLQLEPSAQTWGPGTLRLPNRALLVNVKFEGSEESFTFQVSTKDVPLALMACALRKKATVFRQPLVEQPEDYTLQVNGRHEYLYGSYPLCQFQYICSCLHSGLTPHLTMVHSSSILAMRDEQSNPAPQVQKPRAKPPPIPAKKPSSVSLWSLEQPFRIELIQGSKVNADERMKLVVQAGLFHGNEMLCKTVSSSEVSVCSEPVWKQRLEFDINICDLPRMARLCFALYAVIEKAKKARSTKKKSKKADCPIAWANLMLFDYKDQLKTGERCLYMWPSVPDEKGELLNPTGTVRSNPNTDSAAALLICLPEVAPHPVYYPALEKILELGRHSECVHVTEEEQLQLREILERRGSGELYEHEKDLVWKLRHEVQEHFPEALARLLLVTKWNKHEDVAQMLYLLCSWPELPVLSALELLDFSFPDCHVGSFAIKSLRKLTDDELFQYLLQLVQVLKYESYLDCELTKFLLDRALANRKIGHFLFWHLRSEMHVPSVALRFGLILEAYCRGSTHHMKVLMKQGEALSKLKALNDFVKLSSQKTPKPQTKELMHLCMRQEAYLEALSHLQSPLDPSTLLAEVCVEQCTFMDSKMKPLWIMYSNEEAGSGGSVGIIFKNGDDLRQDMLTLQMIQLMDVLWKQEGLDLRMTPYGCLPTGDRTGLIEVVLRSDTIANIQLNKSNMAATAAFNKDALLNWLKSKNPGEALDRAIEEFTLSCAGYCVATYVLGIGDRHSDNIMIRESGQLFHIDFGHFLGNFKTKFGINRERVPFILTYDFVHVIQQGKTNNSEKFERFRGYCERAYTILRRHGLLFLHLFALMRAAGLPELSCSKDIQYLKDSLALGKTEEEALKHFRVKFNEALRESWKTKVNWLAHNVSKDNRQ
T5 sequence (P27986 whole entry partner): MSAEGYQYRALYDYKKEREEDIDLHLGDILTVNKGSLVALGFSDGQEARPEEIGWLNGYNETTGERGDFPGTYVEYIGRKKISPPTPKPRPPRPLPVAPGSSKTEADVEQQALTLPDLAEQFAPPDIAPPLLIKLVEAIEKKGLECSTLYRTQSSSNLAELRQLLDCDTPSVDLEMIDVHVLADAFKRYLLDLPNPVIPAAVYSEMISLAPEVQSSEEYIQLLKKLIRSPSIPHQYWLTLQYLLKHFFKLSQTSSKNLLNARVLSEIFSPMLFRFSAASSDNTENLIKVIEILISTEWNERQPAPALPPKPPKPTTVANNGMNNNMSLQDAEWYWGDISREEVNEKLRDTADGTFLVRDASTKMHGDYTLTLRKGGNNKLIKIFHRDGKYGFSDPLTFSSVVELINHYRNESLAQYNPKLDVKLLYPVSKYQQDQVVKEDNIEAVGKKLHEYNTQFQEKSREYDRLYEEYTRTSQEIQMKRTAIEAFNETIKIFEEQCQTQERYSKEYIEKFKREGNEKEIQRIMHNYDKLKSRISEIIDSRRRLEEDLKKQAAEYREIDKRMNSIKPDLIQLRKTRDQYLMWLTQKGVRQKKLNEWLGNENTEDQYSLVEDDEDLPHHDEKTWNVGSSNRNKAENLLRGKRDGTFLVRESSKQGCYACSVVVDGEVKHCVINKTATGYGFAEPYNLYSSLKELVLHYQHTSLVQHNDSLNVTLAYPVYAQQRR
In words: PI3Kδ kinase assay (ADP-Glo, Reaction Biology). Format: biochemical. Put shortly:
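Kinase in Tris-HCl 40 mM pH 7.5, MgCl2 20 mM, orthovanadate 3 mM, DTT 2 mM, 0.05% CHAPS, 1% DMSO, preincubated 10 min at room temperature with compound (about 0.5 nM–100 μM). ATP started a 30-min reaction at 30 °C. ADP-Glo luminescence converted to μM ADP via standard curve; IC50 from nonlinear regression.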

The target of the next assay is T6, FMS kinase (Homo sapiens, UniProt P07333).
T6 construct: purchased Invitrogen (Life Technologies)
T6 sequence (P07333 20-972): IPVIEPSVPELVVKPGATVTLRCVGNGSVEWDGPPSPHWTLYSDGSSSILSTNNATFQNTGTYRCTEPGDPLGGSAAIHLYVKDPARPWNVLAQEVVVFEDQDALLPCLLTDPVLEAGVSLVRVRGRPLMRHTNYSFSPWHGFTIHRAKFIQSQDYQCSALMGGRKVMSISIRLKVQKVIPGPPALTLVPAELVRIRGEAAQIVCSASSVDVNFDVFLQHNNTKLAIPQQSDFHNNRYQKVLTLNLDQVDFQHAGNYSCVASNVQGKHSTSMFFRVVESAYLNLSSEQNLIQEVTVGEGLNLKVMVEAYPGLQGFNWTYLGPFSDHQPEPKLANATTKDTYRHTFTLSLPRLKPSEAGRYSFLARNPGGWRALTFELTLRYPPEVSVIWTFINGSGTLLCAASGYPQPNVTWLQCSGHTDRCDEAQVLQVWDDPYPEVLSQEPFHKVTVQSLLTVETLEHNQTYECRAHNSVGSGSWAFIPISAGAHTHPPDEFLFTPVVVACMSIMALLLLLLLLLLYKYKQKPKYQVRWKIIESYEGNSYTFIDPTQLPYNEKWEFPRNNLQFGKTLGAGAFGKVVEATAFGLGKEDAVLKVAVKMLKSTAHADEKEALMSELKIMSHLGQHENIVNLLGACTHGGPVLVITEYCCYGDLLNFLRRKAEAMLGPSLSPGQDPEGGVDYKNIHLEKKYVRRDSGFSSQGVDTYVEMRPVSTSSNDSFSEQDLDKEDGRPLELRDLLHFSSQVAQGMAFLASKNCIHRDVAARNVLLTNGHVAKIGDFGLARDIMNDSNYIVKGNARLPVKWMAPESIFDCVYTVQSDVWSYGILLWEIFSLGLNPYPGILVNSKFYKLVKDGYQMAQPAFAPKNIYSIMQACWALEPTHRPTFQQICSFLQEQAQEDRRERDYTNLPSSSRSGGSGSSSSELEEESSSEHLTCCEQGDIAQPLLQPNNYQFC
In words: LanthaScreen Eu Kinase Binding Assay (ATP, fluorescent-PolyGT substrate). Format: biochemical. The gist of the method: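 Kinase (1.25 nM) preincubated 10 min with 3-fold compound dilutions, then ATP 10 μM and fluorescent PolyGT substrate 200 nM added for 1 h in the dark at room temperature. Stopped with Tb-antibody (4 nM) and EDTA 20 mM; TR-FRET at 340 nm excitation, 495/520 nm emission; IC50 from four-parameter fit.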
A general note: TR-FRET usually uses a lanthanide donor and a delayed reading to cut background.

T1 sequence (P11802 whole entry): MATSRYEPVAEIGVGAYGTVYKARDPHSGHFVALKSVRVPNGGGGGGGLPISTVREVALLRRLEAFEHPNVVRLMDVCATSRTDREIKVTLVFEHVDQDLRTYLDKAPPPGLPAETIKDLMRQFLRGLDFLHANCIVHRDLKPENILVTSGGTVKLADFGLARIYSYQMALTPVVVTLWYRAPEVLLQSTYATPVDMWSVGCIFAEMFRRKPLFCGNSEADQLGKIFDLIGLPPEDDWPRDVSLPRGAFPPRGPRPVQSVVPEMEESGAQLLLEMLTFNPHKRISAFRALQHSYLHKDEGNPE
T1 sequence (P24385 whole entry partner): as the sequence (P24385 whole entry partner) above

As for `N#Cc1cc2cnc(NC3CCN(S(=O)(=O)N4CCOCC4)CC3)nc2n(C2CCCC2)c1=O` [Compound No. 383, 8-cyclopentyl-2-(1-(morpholinosulfonyl)piperidin-4-ylamino)-7-oxo-7,8-dihydropyrido[2,3-d]pyrimidine-6-carbonitrile], the pIC50 at CDK4 was 7.96; on CDK6 it was 8.22; against CDK1 (cyclin B), 6.63; against CDK2 (cyclin A), 8.10; in assay [1], 5.61; in assay [2] it was 6.84.
Take `CN(C)CC(=O)N1CCC(n2cc(Nc3ncc4cc(C#N)c(=O)n(C5CCCC5)c4n3)cn2)CC1` [Compound No. 202, 8-cyclopentyl-2-((1-(1-(dimethylglycyl)piperidin-4-yl)-1H-pyrazol-4-yl)amino)-7-oxo-7,8-dihydropyrido[2,3-d]pyrimidine-6-carbonitrile]: the pIC50 was 7.24 at CDK4; 7.59 at CDK6; 6.81 at CDK2 (cyclin A); 7.41 against PI3Kδ kinase; 5.42 in assay [1]; 6.08 in assay [2].
As for `CS(=O)(=O)N1CCC(Nc2ncc3cc(C(F)F)c(=O)n(C4CC5CCC4C5)c3n2)CC1` (racemic) [Compound 401, 8-((1S,2S,4R)-bicyclo[2.2.1]heptan-2-yl)-6-(difluoromethyl)-2-((1-(methylsulfonyl)piperidin-4-yl)amino)pyrido[2,3-d]pyrimidin-7(8H)-one], the pIC50 was 8.40 on CDK4, 8.35 at CDK6, 7.06 at CDK1 (cyclin B) (read-out: CDK1/B IC50) and 7.72 on CDK2 (cyclin A).
For the molecule `N#Cc1cc2cnc(Nc3nc(C4CCNCC4)cs3)nc2n(C2CCCC2)c1=O` [Compound No. 327, 8-cyclopentyl-7-oxo-2-((4-(piperidin-4-yl)thiazol-2-yl)amino)-7,8-dihydropyrido [2,3-d] pyrimidine-6-carbonitrile], the pIC50 on CDK4 is 7.59; at CDK6, 8.05; on CDK1 (cyclin B) (read-out: CDK1/B IC50) it was below 5.30; against PI3Kδ kinase, 5.25; in assay [1], 5.77; in assay [2], 6.19.
For the molecule `CN1CCC(n2cc(Nc3ncc4cc(C#N)c(=O)n(C5CCCC5)c4n3)cn2)CC1` [Compound No. 325, 8-cyclopentyl-2-((1-(1-methylpiperidin-4-yl)-1H-pyrazol-4-yl)amino)-7-oxo-7,8-dihydropyrido [2,3-d] pyrimidine-6-carbonitrile], the pIC50 at CDK4 is 7.15; on CDK6 it was 7.44; on CDK2 (cyclin A), 6.42; at PI3Kδ kinase it was 7.66; in assay [1], 5.62; in assay [2], 6.35.
For the molecule `N#Cc1cc2cnc(Nc3ccc(N4CCN5CCCC5C4)c(F)c3)nc2n(C2CCCC2)c1=O` (stereo not shown) [Compound No. 55, 8-cyclopentyl-2-((3-fluoro-4-(hexahydropyrrolo[1,2-a]pyrazin-2(1H)-yl)phenyl)amino)-7-oxo-7,8-dihydropyrido[2,3-d]pyrimidine-6-carbonitrile], the pIC50 at CDK4 is 8.19; on CDK6, 7.80; on FMS kinase it was 9.22; on PI3Kδ kinase, 5.77; in assay [1], 5.90; in assay [2] it was 6.32.
As for `Cn1ccc(S(=O)(=O)N2CCC(Nc3ncc4cc(C(F)F)c(=O)n([C@@H]5C[C@H]6CC[C@@H]5C6)c4n3)CC2)n1` [Compound 396, 8-((1R,2R,4S)-bicyclo[2.2.1]heptan-2-yl)-6-(difluoromethyl)-2-((1-((1-methyl-1H-pyrazol-3-yl)sulfonyl)piperidin-4-yl)amino)pyrido[2,3-d]pyrimidin-7(8H)-one], the pIC50 at CDK4 is 7.77; at CDK6, 8.15; at CDK1 (cyclin B), 7.00; against CDK2 (cyclin A), 7.85.
In the same order, the values of `CS(=O)(=O)N1CCC(Nc2ncc3cc(C(F)F)c(=O)n([C@H]4C[C@H]5C[C@H]5C4)c3n2)CC1` [Compound 196, 8-((1R,3R,5S)-bicyclo[3.1.0]hexan-3-yl)-6-(difluoromethyl)-2-((1-(methylsulfonyl)piperidin-4-yl)amino)pyrido[2,3-d]pyrimidin-7(8H)-one] are 8.60, 8.35, 7.51 and 8.30.
For `N#Cc1cc2cnc(Nc3ccn(C4CCNCC4)c(=O)c3)nc2n(C2CCCC2)c1=O` [Compound No. 60, 8-cyclopentyl-7-oxo-2-((2-oxo-1-(piperidin-4-yl)-1,2-dihydropyridin-4-yl)amino)-7,8-dihydropyrido[2,3-d]pyrimidine-6-carbonitrile], the pIC50 at CDK4 is 7.28; at CDK6, 7.26; on FMS kinase, 7.74; against PI3Kδ kinase it was 7.47; in assay [1], 5.29; in assay [2] it was 5.16.
With `Cn1ccc(S(=O)(=O)N2CCC(Nc3ncc4cc(C(F)F)c(=O)n([C@H]5C[C@@H]6CC[C@H]5C6)c4n3)CC2)n1` [Compound 395, 8-((1S,2S,4R)-bicyclo[2.2.1]heptan-2-yl)-6-(difluoromethyl)-2-((1-((1-methyl-1H-pyrazol-3-yl)sulfonyl)piperidin-4-yl)amino)pyrido[2,3-d]pyrimidin-7(8H)-one], the pIC50 was 7.89 at CDK4, 7.96 on CDK6, 7.18 against CDK1 (cyclin B) and 7.74 on CDK2 (cyclin A).
For `COCCn1cc(Nc2ncc3cc(C#N)c(=O)n(C4CCCC4)c3n2)cn1` [Compound No. 104, 8-cyclopentyl-2-((1-(2-methoxyethyl)-1H-pyrazol-4-yl)amino)-7-oxo-7,8-dihydropyrido [2,3-d] pyrimidine-6-carbonitrile], the pIC50 on CDK4 was below 6.74; on CDK6 it was 7.25; against CDK2 (cyclin A) it was 6.85; against PI3Kδ kinase it was 7.12; in assay [1], 5.60; in assay [2], 5.99.
`CN(C)CCn1cc(Nc2ncc3cc(C#N)c(=O)n(C4CCCC4)c3n2)cn1` [Compound No. 105, 8-cyclopentyl-2-((1-(2-(dimethylamino)ethyl)-1H-pyrazol-4-yl)amino)-7-oxo-7,8-dihydropyrido[2,3-d]pyrimidine-6-carbonitrile]: the pIC50 is 7.16 at CDK4; 7.47 on CDK6; below 5.47 on CDK1 (cyclin B) (read-out: CDK1/B IC50); 6.34 against PI3Kδ kinase; 5.42 in assay [1]; 6.17 in assay [2].
As to `N#Cc1cc2cnc(Nc3ccc(N4CCN5CCCCC5C4)c(F)c3)nc2n(C2CCCC2)c1=O` (stereo not shown) [Compound No. 59, 8-cyclopentyl-2-((3-fluoro-4-(octahydro-2H-pyrido[1,2-a]pyrazin-2-yl)phenyl)amino)-7-oxo-7,8-dihydropyrido[2,3-d]pyrimidine-6-carbonitrile], the pIC50 is 8.22 on CDK4; 7.66 at CDK6; 9.00 on FMS kinase; 5.88 against PI3Kδ kinase; 5.88 in assay [1]; 6.27 in assay [2].

These data come from patent US20220273659A1, “HETEROCYCLIC COMPOUNDS AS KINASE INHIBITORS” (NUVATION BIO INC., priority 2019, published 2022).
